Entries after “also recorded” stand apart in the source; their conditions may differ.
Key:
[1] = test system: triple negative breast cancer cells (Hs-578T); test: Resazurine cell viability assay, 2D culture, with or without magnetic hyperthermia; format: cell-based; details: Homo sapiens
Procedure: In an embodiment, 2D- cell culture was prepared. Hs-578T and MBA-MB-231 TNBC cell lines (ATCC HTB-126 and ATCC Htb-26, respectively) were grown in Dulbecco's Modified Eagle's Medium (DMEM) supplemented with 10% foetal bovine serum and 1% penicillin/streptomycin. THP-1 peripheral blood monocytes (ATCC TIB-202) were grown in Gibco Roswell Park Memorial Institute (RPMI) medium supplemented with 10% foetal bovine serum and 1% penicillin/streptomycin. All cell lines were incubated at 37 °C in a 5% CO2 atmosphere.
In an embodiment, cell viability was assessed. The Resazurine assay was used to calculate the cell viability. The assay is based on the reduction by living cells of the oxidized blue dye to a pink fluorescent resorufin product. […] The fluorescence of each condition was then read with an Biotek Synergy H1 plate reader, and compared to the controls using the formula {Viability = (Treated cells−blank)/(Untreated cells−blank) × 100 [formula] }. […] For each, the inhibitory concentration 50 (IC50) of each formulation was calculated using the DRC R-package. […] The activity gain (AG) for the different formulations was calculated as {AGF=100×(IC50^(free DOX) −IC50^mSLNP)/(IC50^(free DOX))} [formula] , whilst the AG of the magnetic hyperthermia event was calculated as {AGMH=100×(IC50^noHT −IC50^HT)/(IC50^noHT)} [formula] . […]

[2] = test system: Hs-578T polyspheroids; test: 3D polyspheroid growth assay with dual treatment (formulation + AMF); format: cell-based; details: 2 µM relative to DOX + 1h AMF on days 1, 3 and 5; monitored 19 days
Procedure: In an embodiment, 3D spheroids were prepared. In a 96-well plate was a hot and sterile solution of 1% agarose added (100 µL) and left to cool for 30 min at 4 °C. Then, the plate was tempered and 20000 cancer cells added to each well in 120 µ L of medium. The plate was centrifugated at 800 G during 30 min to promote the formation of the spheroid. The Spheroids were incubated for one week with a medium change every 3 days, until a small dense Spheroid was formed. These spheroids were used in confocal microscopy, or to form poly-spheroids. […]
In an embodiment, growth assay was performed. […] The polyspheroids were monitored every 2 days before treatments or medium change, using an inverted phase-contrast microscope (Nikon Eclipse TS100, Nikon Corporation, Tokyo, Japan) connected to a digital camera (Nikon, DS-Fi1). […] The images were analyzed with image J and R statistical language, using R-packages imager and EBImage, to determine the area of each polyspheroids treated with each condition for every day analyzed. The growth of the polyspheroids were normalized in regards to their own initial area at the start of the experiment, and calculated as { Growth = 100 × (Area−Area^day1)/(Area^day1) [formula] }. The daily growth was calculated as {Growth^daily=(∑Growth)/(19 days)} [formula] . […]

[3] = test system: Hs578t tumor; test: In ovo (CAM) tumor growth model; format: in vivo, chicken; details: 2xIC50 (DOX concentration), treated at day 13, read at day 17
Procedure: (§1) (A) In ovo pictures at day 13 of embryo development and in ovo and ex ovo pictures at day 17; representative images were taken at 20x in a Zeiss stereomicroscope. (B) Graphical representation of tumor growth. Data was analyzed by one-way ANOVA and the results are representative for the mean of at least 15 eggs per group;^∗∗∗p<0.0001 ^∗p<0.05. Hs578t cells were used to establish a TNBC chicken egg model. Fertilized eggs were incubated for 9 days and, at this time, the chicken embryo is surrounded by the CAM which provides nutrients for its development. At day 13 of development, the tumor mass could be visualized and the resulting tumors were treated with 2xlC50 EBR85-functionalized nanoparticles (corresponding to DOX concentration). The same concentration of DOX was used for the group treated with DOX alone. Also, a control group treated with DMEM medium was used to evaluate tumorgrowth. […] As observed in Figure 16, a significant reduction on tumor size could be appreciated for the EBR85-treated group, comparing to the control and DOX-treated groups.

[4] = test system: chick embryo; test: Toxicity to the embryo in the in ovo model; format: in vivo, chicken; details: 2xIC50 (DOX concentration), throughout the experiment
Procedure: as §1

[5] = test system: Hs-578T cells; test: Wound-healing (cell migration) assay; format: cell-based; details: at the IC50 DOX concentration, up to 48h
Procedure: The effect of the functionalized mSLNs AF-2 (EBR85, T-sensitive, +DOX) and AF-3 (EBR89, T-insensitive, -DOX) and reference compound (DOX) on the cell migration capability of Hs-578T cells was assessed through the wound-healing assay. mSLNs (with and without DOX) at the IC50 DOX concentration and equivalent mSLNs were used in the experiment. EBR89 (without DOX) was selected to study the effect of the nanoparticle nature on this tumorigenic feature and evaluate its toxicity. Cell migration and invasion are two hallmarks of cancer correlated to cancer progression and metastasis which correspond to a worse cancer prognosis.
Results are presented as mean ± SD of at least three independent experiments.

Which results are given for COc1cccc2c1C(=O)c1c(O)c3c(c(O)c1C2=O)C[C@@](O)(C(=O)CO)C[C@@H]3O[C@H]1C[C@H](N)[C@H](O)[C@H](C)O1 [DOX, Doxorubicin]?
IC50 ([1]; 72h, without magnetic hyperthermia): 1600 nM; IC50 ([1]; Figure 4C experiment, EBR85 with 1h magnetic hyperthermia then 72 h, free DOX as reference): 1520 nM; polyspheroid growth [2]: continued to grow during the first week of treatment; also recorded: slowing down its growth; regression in the tumors' area [3]: 11%; toxicity to the chick embryo [4]: no toxicity; cell migration capability [5]: very low migration capability

— EP4205768A1, “MAGNETIC SOLID LIPID NANOPARTICLES, METHODS AND USES THEREOF” (priority 2021, dated 2023)
